Common to all, as to experiment: Peptidase activity detection on Columbia agar containing substrate
Common to all, as to type: cell-based

Assay [1] deals with Pseudomonas aeruginosa NCTC 10662. Also on record: key to fluorescence intensity: − = no fluorescence detected; e = trace of fluorescence; +/− = weak fluorescence; + = medium fluorescence; ++ = strong fluorescence; NG = No Growth. The conditions noted are these: for fluorescence intensity: Pseudomonas aeruginosa NCTC 10662, substrate 100 mg/l, 24 hours at 37° C., UV 360-365 nm; for fluorescence produced: Pseudomonas aeruginosa strain. The procedure: (§1) 40 mg of each substrate are dissolved in 4 ml of dimethylformamide (DMF). This solution is completely taken up in 400 ml of Columbia agar autoclaved beforehand and kept molten at 50° C. The final concentration for each substrate is therefore 100 mg/l. Each of the media is distributed into 90 mm Petri dishes in a proportion of 20 ml per dish.
(§2) 18 microorganism strains derived from collections and belonging to various species of bacteria and of yeasts are inoculated onto these media by semi-quantitative isolation of 10 μl of a suspension at 0.5 McFarland diluted to 1/20. The media are incubated for 24 hours at 37° C., and then the colonies formed are examined visually under UV illumination at 360-365 nm.

Assay [2] deals with Burkholderia cepacia 1222. Also on record: key to fluorescence intensity: − = no fluorescence detected; e = trace of fluorescence; +/− = weak fluorescence; + = medium fluorescence; ++ = strong fluorescence; NG = No Growth. The following applies: for fluorescence intensity: Burkholderia cepacia 1222, substrate 100 mg/l, 24 hours at 37° C., UV 360-365 nm; for fluorescence produced: B. cepacia strain. The procedure: as §1, §2

In assay [3] the test system is Enterobacter cloacae NCTC 11936. Also noted: key: − = no fluorescence detected; e = trace of fluorescence; +/− = weak fluorescence; + = medium fluorescence; ++ = strong fluorescence; NG = No Growth. The following applies: substrate 100 mg/l, 24 hours at 37° C., UV 360-365 nm. The procedure:
as §1, §2

For assay [4], the system named is Bacillus subtilis NCTC 9372. Also noted: key: − = no fluorescence detected; e = trace of fluorescence; +/− = weak fluorescence; + = medium fluorescence; ++ = strong fluorescence; NG = No Growth. The conditions noted are these: substrate 100 mg/l, 24 hours at 37° C., UV 360-365 nm. As to the method:
as §1, §2

The subject of assay [5] is Streptococcus pyogenes NCTC 8306. Also noted: key: − = no fluorescence detected; e = trace of fluorescence; +/− = weak fluorescence; + = medium fluorescence; ++ = strong fluorescence; NG = No Growth. The following applies: substrate 100 mg/l, 24 hours at 37° C., UV 360-365 nm. As to the method: as §1, §2
For assay [6], the system named is Staphylococcus aureus NCTC 6571. Also on record: key: − = no fluorescence detected; e = trace of fluorescence; +/− = weak fluorescence; + = medium fluorescence; ++ = strong fluorescence; NG = No Growth. The following applies: substrate 100 mg/l, 24 hours at 37° C., UV 360-365 nm. The procedure: as §1, §2
The subject of assay [7] is Candida glabrata NCPF3943. Also noted: key: − = no fluorescence detected; e = trace of fluorescence; +/− = weak fluorescence; + = medium fluorescence; ++ = strong fluorescence; NG = No Growth. The conditions noted are these: substrate 100 mg/l, 24 hours at 37° C., UV 360-365 nm. The procedure:
as §1, §2

Assay [8] concerns Staphylococcus epidermidis NCTC 11047. Also noted: key: − = no fluorescence detected; e = trace of fluorescence; +/− = weak fluorescence; + = medium fluorescence; ++ = strong fluorescence; NG = No Growth. The following applies: substrate 100 mg/l, 24 hours at 37° C., UV 360-365 nm. As to the method:
as §1, §2

Assay [9] has as its system Serratia marcescens NCTC 10211. Also noted: key: − = no fluorescence detected; e = trace of fluorescence; +/− = weak fluorescence; + = medium fluorescence; ++ = strong fluorescence; NG = No Growth. The following applies: substrate 100 mg/l, 24 hours at 37° C., UV 360-365 nm. As to the method: as §1, §2
Assay [10] deals with Providencia rettgeri NCTC 7475. Also on record: key: − = no fluorescence detected; e = trace of fluorescence; +/− = weak fluorescence; + = medium fluorescence; ++ = strong fluorescence; NG = No Growth. The following applies: substrate 100 mg/l, 24 hours at 37° C., UV 360-365 nm. As to the method: as §1, §2
Assay [11] has as its system Candida albicans ATCC 90028. Also noted: key: − = no fluorescence detected; e = trace of fluorescence; +/− = weak fluorescence; + = medium fluorescence; ++ = strong fluorescence; NG = No Growth. The following applies: substrate 100 mg/l, 24 hours at 37° C., UV 360-365 nm. As to the method:
as §1, §2

Assay [12] concerns Escherichia coli NCTC 10418. Also on record: key: − = no fluorescence detected; e = trace of fluorescence; +/− = weak fluorescence; + = medium fluorescence; ++ = strong fluorescence; NG = No Growth. The following applies: substrate 100 mg/l, 24 hours at 37° C., UV 360-365 nm. The procedure:
as §1, §2

The test system of assay [13] is Salmonella Typhimurium NCTC 74. Also noted: key: − = no fluorescence detected; e = trace of fluorescence; +/− = weak fluorescence; + = medium fluorescence; ++ = strong fluorescence; NG = No Growth. The following applies: substrate 100 mg/l, 24 hours at 37° C., UV 360-365 nm. The procedure: as §1, §2
For assay [14], the system named is Staphylococcus aureus NCTC 11939. Also on record: key: − = no fluorescence detected; e = trace of fluorescence; +/− = weak fluorescence; + = medium fluorescence; ++ = strong fluorescence; NG = No Growth. The conditions noted are these: Staphylococcus aureus (MRSA) NCTC 11939; substrate 100 mg/l, 24 hours at 37° C., UV 360-365 nm. The procedure:
as §1, §2

Assay [15] has as its system Enterococcus faecalis NCTC 775. Also noted: key: − = no fluorescence detected; e = trace of fluorescence; +/− = weak fluorescence; + = medium fluorescence; ++ = strong fluorescence; NG = No Growth. The following applies: substrate 100 mg/l, 24 hours at 37° C., UV 360-365 nm. As to the method:
as §1, §2

Assay [16] has as its system Enterococcus faecium NCTC 11047. Also on record: key: − = no fluorescence detected; e = trace of fluorescence; +/− = weak fluorescence; + = medium fluorescence; ++ = strong fluorescence; NG = No Growth. The conditions noted are these: Enterococcus faecium NCTC 11047 (Table 2); substrate 100 mg/l, 24 hours at 37° C., UV 360-365 nm. As to the method: as §1, §2
Assay [17] concerns Listeria monocytogenes NCTC 11994. Also noted: key: − = no fluorescence detected; e = trace of fluorescence; +/− = weak fluorescence; + = medium fluorescence; ++ = strong fluorescence; NG = No Growth. The following applies: substrate 100 mg/l, 24 hours at 37° C., UV 360-365 nm. As to the method: as §1, §2
The subject of assay [18] is Staphylococcus aureus strains. The following applies: the two Staphylococcus aureus strains. The procedure: as §1, §2
Assay [19] concerns Yersinia enterocolitica NCTC 11176. Also noted: key: − = no fluorescence detected; e = trace of fluorescence; +/− = weak fluorescence; + = medium fluorescence; ++ = strong fluorescence; NG = No Growth. The conditions noted are these: substrate 100 mg/l, 24 hours at 37° C., UV 360-365 nm. The procedure:
as §1, §2

Take `C[C@H](N)C(=O)Nc1ccc(Cl)cc1-c1nc2ccccc2s1` [Substrate 19]: the fluorescence intensity result in assay [1] was “−”; in assay [2], “−”; in assay [3] it was “+”; in assay [4] it was “−”; in assay [5], “NG”; in assay [6] it was “−”. The fluorescence intensity result was “NG” in assay [7]; “NG” in [8]; “−” in assay [9]; “+” in assay [10]; “NG” in assay [11]; “+” in assay [12]. The fluorescence intensity result is recorded as “+/−” in [13]; “−” in assay [14]; “−” in assay [15]; “−” in assay [16]; “−” in assay [17]. The “fluorescence produced” value in [1] is recorded as “negative”.

Consider `C[C@H](N)C(=O)Nc1ccccc1-c1nc2cc(Cl)ccc2o1` [Substrate 4], for which the “fluorescence produced” value was “no fluorescence was detected” in assay [18] and “weak violet fluorescence” in assay [1]. In addition, the fluorescence intensity result is listed as “+/−” in [1]; “−” in [2]; “+” in assay [3]; “NG” in assay [4]; “−” in assay [5]; “−” in assay [6]. Also, the fluorescence intensity entry in assay [7] is recorded as “−”; in assay [8] it was “−”; in assay [9], “++”; in assay [10], “+”; in [11] it was “−”; in [12] it was “NG^2”. Besides, the fluorescence intensity entry in assay [13] is “NG”; in assay [14], “−”; in [19], “+”; in assay [15], “+/−”; in assay [16], “−”; in assay [17] it was “−”.

As for `COc1cc(NC(=O)CCN)c(-c2nc3ccccc3o2)cc1OC` [Substrate 11], the fluorescence intensity entry was “+/−” in [1]; “+” in [2]; “+” in assay [3]; “−” in assay [4]; “−” in [5]; “+” in assay [6]. In addition, the fluorescence intensity entry in assay [7] is “−”; in assay [8], “−”; in assay [9], “+”; in assay [10] it was “+”; in assay [11] it was “−”; in assay [12], “+”. The fluorescence intensity entry in assay [13] is listed as “+”; in assay [14], “−”; in assay [19], “+/−”; in assay [15], “+/−”; in assay [16], “+/−”; in assay [17], “+/−”.

Take `NCCC(=O)Nc1ccccc1-c1nc2ccccc2o1` [Substrate 2]: the fluorescence intensity result is on record as “+” in [1]; “+” in assay [2]; “+” in assay [3]; “NG” in [4]; “NG” in [5]; “−” in assay [6]. Further, the fluorescence intensity entry is reported as “−” in assay [7]; “−” in assay [8]; “+” in assay [9]; “+/−” in assay [10]; “−” in assay [11]; “+” in [12]. Further, the fluorescence intensity entry in assay [13] was “−”; in assay [14], “−”; in assay [19], “+/−”; in assay [15] it was “+/−”; in [16], “+/−”; in assay [17], “ε”. For the same molecule, in assay [2], the “fluorescence produced” value is on record as “green fluorescence”.

For `NCC(=O)Nc1ccccc1-c1nc2ccccc2o1` [Substrate 3], the fluorescence intensity result is “+/−” in assay [1]; “+” in [2]; “++” in [3]; “+/−” in [4]; “NG” in assay [5]; “+” in assay [6]. For the same molecule, the fluorescence intensity result in assay [7] is listed as “NG”; in assay [8] it was “NG”; in assay [9], “++”; in [10] it was “++”; in assay [11] it was “NG”; in assay [12], “++”. Further, the fluorescence intensity entry was “−” in assay [13]; “+” in assay [14]; “+/−” in assay [19]; “−” in assay [15]; “NG” in [16]; “+/−” in [17]. Besides, in assay [2], the “fluorescence produced” value is “medium blue fluorescence”.

Take `NCCC(=O)Nc1ccccc1-c1nc2ccccc2s1` [Substrate 18]: the fluorescence intensity result is “++” in assay [1]; “NG” in assay [2]; “NG” in [3]; “NG” in [4]; “NG” in assay [5]; “NG” in assay [6]. Besides, the fluorescence intensity result is on record as “NG” in assay [7]; “NG” in assay [8]; “++” in assay [9]; “NG” in assay [10]; “NG” in assay [11]; “++” in assay [12]. The fluorescence intensity result in assay [13], in assay [14], in assay [19], in [15], in assay [16] and in assay [17] was “NG” in each case.

The record behind these values is patent publication US8216800B2, “Substrates for detecting peptidase activity and methods using the substrates” (Biomerieux, priority 2007, dated 2012).
